Experimental data published in PMC9687571, “Anti-Inflammatory Activity of Olive Oil Polyphenols—The Role of Oleacein and Its Metabolites” (Biomedicines, 2022).
“And” between values parts separate entries of the source, which are not always exact repeats. Equal entries are not always repeated. Where two headings read alike, the source gives them in different places.

What was measured:
[1] = biological target: T1, COX-1 (Ovis aries, UniProt P05979); experiment: COX-1 inhibition assay (COX fluorescent inhibitor assay kit); type: biochemical
T1 construct: purchased Cayman Chemical
T1 sequence (P05979 25-600): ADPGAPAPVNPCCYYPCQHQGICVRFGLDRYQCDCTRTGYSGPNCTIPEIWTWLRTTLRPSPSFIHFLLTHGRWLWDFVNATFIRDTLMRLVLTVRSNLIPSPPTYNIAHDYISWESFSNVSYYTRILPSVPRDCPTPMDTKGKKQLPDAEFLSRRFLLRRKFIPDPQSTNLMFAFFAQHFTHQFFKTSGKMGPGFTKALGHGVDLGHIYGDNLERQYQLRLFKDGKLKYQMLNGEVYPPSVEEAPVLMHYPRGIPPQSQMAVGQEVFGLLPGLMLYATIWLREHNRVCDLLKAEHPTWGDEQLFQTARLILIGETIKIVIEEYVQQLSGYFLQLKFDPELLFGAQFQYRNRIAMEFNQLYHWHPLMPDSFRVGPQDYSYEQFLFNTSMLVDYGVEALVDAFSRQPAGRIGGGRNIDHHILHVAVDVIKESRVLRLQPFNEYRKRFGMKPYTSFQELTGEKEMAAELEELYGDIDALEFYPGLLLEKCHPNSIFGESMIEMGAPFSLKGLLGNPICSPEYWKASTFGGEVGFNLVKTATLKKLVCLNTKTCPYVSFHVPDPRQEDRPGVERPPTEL
Method: (§1) COX assays were performed using the COX fluorescent inhibitor assay kit with some modifications. This assay was based on the reaction between prostaglandin G2 (PGG2), product of COX activity, and 10-acetyl-3,7-dihydroxyphenoxazine (ADHP), producing a highly fluorescent compound, resorufin. Briefly, 60 µL of Tris-HCl buffer (100 mM, pH 8.0), 5 µL of hemin, 5 µL of COX (COX-1 or COX-2) and 5 µL of increasing concentrations of each compound (6.25–100 µM) were added to each well in a black 96-well plate. After 5 min, at room temperature, the reaction started by adding 5 µL of ADHP and 20 µL of substrate (AA 0.5 mM with KOH 2.5 mM) in each well. After 3 min, the fluorescence was measured at 590 nm, setting the excitation wavelength at 535 nm, using a multiplate reader Synergy H1 Biotek. The results were expressed as % of COX inhibition and correspond to the mean ± SEM of four independent assays, each performed in duplicate. SC-560 was used as the positive control for COX-1 and Dup-697 was used as the positive control for COX-2 assay.

[2] = biological target: T2, COX-2 (Homo sapiens, UniProt P35354); experiment: COX-2 inhibition assay (COX fluorescent inhibitor assay kit); type: biochemical
T2 construct: purchased Cayman Chemical
T2 sequence (P35354 18-604): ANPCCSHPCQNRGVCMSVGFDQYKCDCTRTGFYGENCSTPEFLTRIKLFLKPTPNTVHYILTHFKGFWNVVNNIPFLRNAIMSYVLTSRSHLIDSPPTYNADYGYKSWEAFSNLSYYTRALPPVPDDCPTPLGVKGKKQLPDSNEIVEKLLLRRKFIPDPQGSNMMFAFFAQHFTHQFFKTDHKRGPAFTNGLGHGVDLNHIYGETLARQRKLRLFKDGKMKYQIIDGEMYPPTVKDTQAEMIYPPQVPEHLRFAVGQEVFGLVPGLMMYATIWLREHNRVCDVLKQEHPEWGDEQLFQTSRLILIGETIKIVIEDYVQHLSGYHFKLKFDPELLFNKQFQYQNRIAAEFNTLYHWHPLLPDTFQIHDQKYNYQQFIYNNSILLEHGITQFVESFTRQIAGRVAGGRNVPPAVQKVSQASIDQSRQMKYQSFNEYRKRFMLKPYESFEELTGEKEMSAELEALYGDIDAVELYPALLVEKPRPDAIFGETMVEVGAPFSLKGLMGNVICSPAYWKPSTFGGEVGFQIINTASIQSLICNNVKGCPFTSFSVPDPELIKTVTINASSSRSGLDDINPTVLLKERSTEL
Method: as §1

[3] = biological target: T3, 5-LOX (Glycine max, UniProt P08170); experiment: 5-LOX inhibition assay; type: biochemical, Glycine max (soybean); conditions: for IC50: read-out: IC50 5-LOX pure enzyme; for inhibition at 100 µM: read-out: inhibition of the 5-LOX enzyme
T3 construct: purchased Sigma-Aldrich
T3 sequence (P08170 1-839): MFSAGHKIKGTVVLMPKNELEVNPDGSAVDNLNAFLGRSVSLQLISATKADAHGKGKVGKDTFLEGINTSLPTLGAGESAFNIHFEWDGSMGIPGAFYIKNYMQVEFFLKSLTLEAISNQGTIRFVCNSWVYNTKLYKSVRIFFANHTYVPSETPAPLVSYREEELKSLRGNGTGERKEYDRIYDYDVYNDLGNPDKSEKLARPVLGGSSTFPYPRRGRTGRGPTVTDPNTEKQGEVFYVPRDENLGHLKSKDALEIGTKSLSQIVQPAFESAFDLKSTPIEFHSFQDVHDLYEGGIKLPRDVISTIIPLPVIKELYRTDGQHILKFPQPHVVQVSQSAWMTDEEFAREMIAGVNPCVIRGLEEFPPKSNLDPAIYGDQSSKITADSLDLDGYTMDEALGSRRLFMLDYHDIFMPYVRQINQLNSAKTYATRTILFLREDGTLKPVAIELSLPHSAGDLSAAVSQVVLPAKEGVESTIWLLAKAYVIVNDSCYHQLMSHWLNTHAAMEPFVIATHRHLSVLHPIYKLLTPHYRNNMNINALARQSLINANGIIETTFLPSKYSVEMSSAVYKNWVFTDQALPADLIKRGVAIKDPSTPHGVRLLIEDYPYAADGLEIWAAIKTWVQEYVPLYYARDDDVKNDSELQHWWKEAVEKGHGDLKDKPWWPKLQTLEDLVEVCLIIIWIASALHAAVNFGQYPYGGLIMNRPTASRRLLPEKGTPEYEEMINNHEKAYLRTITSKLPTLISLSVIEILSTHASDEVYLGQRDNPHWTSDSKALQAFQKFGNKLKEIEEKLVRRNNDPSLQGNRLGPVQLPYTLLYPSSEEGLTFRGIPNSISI

[4] = biological target: PLA2 + 5-LOX coupled system (Apis mellifera, UniProt P00630); experiment: biochemical; type: biochemical, Apis mellifera bee venom (PLA2), Glycine max (5-LOX); conditions: for IC50: read-out: IC50 PLA2 + 5-LOX coupled system; for inhibition at 100 µM: read-out: inhibition of PLA2 + 5-LOX coupled system
Sequence of PLA2 + 5-LOX coupled system (P00630 whole entry, looked up): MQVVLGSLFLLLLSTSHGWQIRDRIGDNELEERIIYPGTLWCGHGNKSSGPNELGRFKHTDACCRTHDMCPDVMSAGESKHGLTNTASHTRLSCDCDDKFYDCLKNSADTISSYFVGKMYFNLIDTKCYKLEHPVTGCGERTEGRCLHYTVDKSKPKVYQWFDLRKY

Row | SMILES | IC50 [1] | IC50 ([2]; read-out: IC50 COX-2) | IC50 [3] | inhibition at 100 µM [3] | IC50 [4] | inhibition at 100 µM [4] | inhibition at 100 µM ([3]; 100 µM, mean ± SEM) | IC50 ([2]; IC50 COX-2) | inhibitory activity on COX-2, times greater than oleocanthal ([2]; from IC50 1.27 µM versus 16.6 µM)
1 | C/C=C(/C=O)[C@@H](CC=O)CC(=O)OCCc1ccc(O)cc1 [oleocanthal, reference compound] | < 0.1 µM | 16.6 µM |  |  |  |  |  |  | 
2 | CC(=O)OCCc1ccc(O)c(O)c1 [AcHyTy, hydroxytyrosol acetate] | 0.3 µM | 13.3 µM | 107 µM | 49% | 73.5 µM | 86.1% |  |  | 
3 | O=c1c(O)c(-c2ccc(O)c(O)c2)oc2cc(O)cc(O)c12 [quercetin, reference compound] |  |  |  |  |  |  | 59.5% |  | 
4 | OCCc1ccc(O)c(O)c1 [HyTy, hydroxytyrosol] | 0.13 µM |  |  |  |  | 18.6% | 22.2% | 2.42 µM and 2.4 µM and < 3 µM | 
5 | C/C=C(/C=O)[C@@H](CC=O)CC(=O)OCCc1ccc(O)c(O)c1 [oleacein] | 1.46 µM | 1.27 µM and < 3 µM | 45 µM |  | 16.1 µM | 100% | 58.1% |  | 13 times
